Assay results reported in paper PMC10480161, “Identification of potent and selective N-myristoyltransferase inhibitors of Plasmodium vivax liver stage hypnozoites and schizonts” (Nature Communications, 2023).
pIC50: −log10 of the molar value. Values joined by “and” are separate entries in the source; they are usually repeats but may differ in a detail not shown here. Identical values can stand only once. Like-named read-outs stand apart in the source and are kept apart here.

What was measured:
[1] = tested on: P. vivax hypnozoites; test: P. vivax liver stage assay, hypnozoites; format: cell-based, Plasmodium vivax; details: for Hypnozoites per well: Isolate 2, replicate wells (Figure 6d); for Number of liverstage hypnozoites per well: 20 µM, 8 dpi; for pIC50: primary human hepatocytes, treatment day 5 to 8 post-infection, isolate 2
Experimental: Finally, we evaluated the NMT-binding compounds against non-developing P. vivax hypnozoites. […] (Fig. 6A). […] We, therefore, evaluated the impact of all tested compounds on P. vivax hypnozoites using these two isolates.
(§1) Plasmodium vivax liver stage assays were performed as described previously. Cryopreserved primary human hepatocytes (Cat No. F00995-P) and hepatocyte culture medium (HCM) (InVitroGroTM CP Medium) were obtained from Bioreclamation IVT, Inc., (Baltimore, MD, USA). Briefly, we seeded 384-well plates with primary hepatocytes from a single donor lot at a density of 25,000 cells per well. We then infected the hepatocytes with 14,000 freshly hand-dissected sporozoites per well. Cells were exposed to the compounds at indicated concentrations from day 5 post-infection. We used Pi4K inhibitor MMV390048, at 20 µM, as a positive control to eliminate P. vivax liver schizonts. We then proceeded to feed cultures every day, replacing the compounds until day 8 post-infection. Cells were fixed with 4% PFA, permeabilized with 1% Triton X-100, blocked with 2% BSA, and stained with DAPI and PvUIS4 antibodies to detect schizonts and hypnozoites forms by confocal microscopy. For antibody dilutions, PvUIS4 (kind gift from Dr. Noah Sather, Seattle Children’s Research Institute) was diluted 1:250 and the secondary antibody was anti-mouse AlexaFluor-594 (Cat # A-11005; RRID: AB_2534073) diluted 1:1000. DAPI was diluted 1:2000. The images were processed, analyzed and outlier cells were removed using IMARIS (Bitplane Inc.) image analysis software.

[2] = tested on: P. vivax schizonts; test: P. vivax liver stage assay, schizonts; format: cell-based, Plasmodium vivax; details: for Number of liverstage Schizonts per well: 20 µM, 8 dpi; for pIC50: primary human hepatocytes, treatment day 5 to 8 post-infection, isolates 2 and 3
How it was run: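 Primary human hepatocytes (single donor, 25,000/well) infected with 14,000 P. vivax sporozoites per well from patient isolates; compounds (up to 20 µM) given daily from day 5 to day 8 post-infection. Schizonts counted by PvUIS4/DAPI confocal imaging; DAPI nuclei count used as toxicity measure.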

[3] = target: T1, HsNMT1 (Homo sapiens, UniProt P30419); test: NMT activity assay (CPM detection of free CoA), HsNMT
T1 sequence (P30419 1-496): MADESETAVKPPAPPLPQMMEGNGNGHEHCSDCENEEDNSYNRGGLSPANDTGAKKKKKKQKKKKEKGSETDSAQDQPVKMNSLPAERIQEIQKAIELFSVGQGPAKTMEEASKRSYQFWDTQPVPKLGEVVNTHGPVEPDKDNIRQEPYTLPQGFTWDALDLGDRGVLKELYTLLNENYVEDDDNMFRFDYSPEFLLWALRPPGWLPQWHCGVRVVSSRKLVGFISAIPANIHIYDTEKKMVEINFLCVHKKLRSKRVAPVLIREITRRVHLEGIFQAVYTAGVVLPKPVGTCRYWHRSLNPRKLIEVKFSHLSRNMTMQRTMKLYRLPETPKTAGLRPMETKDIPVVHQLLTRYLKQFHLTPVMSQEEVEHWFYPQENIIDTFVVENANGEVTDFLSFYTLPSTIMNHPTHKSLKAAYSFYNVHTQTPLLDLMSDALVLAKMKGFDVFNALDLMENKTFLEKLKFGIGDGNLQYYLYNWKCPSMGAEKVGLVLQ

[4] = tested on: primary human hepatocytes; test: Nuclear counts (DAPI) in P. vivax-infected primary hepatocytes as measure of toxicity; format: cell-based; details: two technical replicates
Experimental: Accordingly, we applied dose–response curves of all the tested NMTs on parasite isolates 2 and 3 over concentrations up to 20 µM (Fig. 5c, d, Source Data file). […] Nuclei were counted in each well using DAPI staining as a measure of toxicity (Supplementary Fig. 86, Supplementary Source data). We used the phosphatidylinositol 4-kinase inhibitor (PI4Ki), MMV390048, as a positive control for eliminating schizonts[37],[38].
as §1, with “For antibody dilutions, PvUIS4 (kind gift from Dr. Noah Sather, Seattle Children’s Research Institute) was diluted 1:250 and the secondary antibody was anti-mouse AlexaFluor-594 (Cat # A-11005; RRID: AB_2534073) diluted 1:1000.” left out
Supplementary Fig. 86. […] Nuclear […]
counts, normalized to DMSO controls, for NMT inhibitors across a dose response. Counts were ob-tained using DAPI staining from the P. vivax-infected wells quantified in Fig. 5d. Error bars represent the standard deviation of two technical replicates.
(1 picture or pasted object on this page, not shown here)

[5] = target: PvNMT (Plasmodium vivax, UniProt A5K1A2); test: NMT activity assay (CPM detection of free CoA), PvNMT; details: for SI: enzyme selectivity, HsNMT IC50/PvNMT IC50
PvNMT, sequence (A5K1A2 entry or part of it): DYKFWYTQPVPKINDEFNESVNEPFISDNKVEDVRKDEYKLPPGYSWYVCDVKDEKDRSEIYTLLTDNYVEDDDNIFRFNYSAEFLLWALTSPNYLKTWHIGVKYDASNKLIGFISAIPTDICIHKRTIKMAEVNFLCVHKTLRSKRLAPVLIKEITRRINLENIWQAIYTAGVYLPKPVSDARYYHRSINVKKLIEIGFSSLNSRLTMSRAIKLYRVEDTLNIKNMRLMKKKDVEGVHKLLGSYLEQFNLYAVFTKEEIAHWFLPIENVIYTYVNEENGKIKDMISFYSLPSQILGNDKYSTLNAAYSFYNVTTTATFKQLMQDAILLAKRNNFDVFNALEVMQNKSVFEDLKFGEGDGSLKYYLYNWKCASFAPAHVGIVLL

[6] = isolate 1, technical replicates (Fig. 6C)
[7] = isolate 2, technical replicates (Fig. 6C)
[8] = isolate 3, technical replicates (Fig. 6C)
[9] = Plasmodium vivax, Hepatocyte, 120 h
[10] = isolate 1, technical replicates (Fig. 5b)
[11] = isolate 2, technical replicates (Fig. 5b)
[12] = isolate 3, technical replicates (Fig. 5b)
[13] = PvNMT IC50, mean of two or more determinations

SMILES | Hypnozoites per well ([1]; 1.25 uM) | Hypnozoites per well ([1]; 2.5 uM) | Hypnozoites per well ([1]; 5 uM) | Hypnozoites per well ([1]; 10 uM) | Number of liverstage hypnozoites per well [1, 6] | Number of liverstage hypnozoites per well [1, 7] | Number of liverstage hypnozoites per well [1, 8] [per well] | Hypnozoites per well ([1]; 20 uM) | hypnozoites (fold change to DMSO) mean diff ([1]; isolate 1, 20 µM) | hypnozoites (fold change to DMSO) mean diff ([1]; isolate 2, 20 µM) | Number of liverstage Schizonts per well [2, 10] | Number of liverstage Schizonts per well [2, 11] | Number of liverstage Schizonts per well [2, 12] | Schizonts per well ([2]; Isolate 2, 1.25 uM) | Schizonts per well ([2]; Isolate 2, 2.5 uM) | Schizonts per well ([2]; Isolate 2, 5 uM) | Schizonts per well ([2]; Isolate 3, 1.25 uM) | Schizonts per well ([2]; Isolate 3, 2.5 uM) | Schizonts per well ([2]; Isolate 3, 5 uM) | Schizonts per well ([2]; Isolate 3, 10 uM) | further results
c1cncc(CCOc2ccccc2-c2ccnc(N3CCNCC3)c2)c1 [Compound 12j] | 9 and 6 and 12 | 13 and 12 and 8 | 19 and 3 and 13 | 13 and 10 | 0 per well (2×) and 3 per well | 0 per well (2×) and 3 per well | 0 | 0 (2×) and 3 | 0.985 | 0.897 | 0 per well (2×) and 1 per well | 2 per well and 0 per well and 1 per well | 4 per well and 3 per well | 15 per well and 18 per well and 14 per well | 13 per well and 11 per well | 11 per well and 12 per well and 13 per well | 11 per well and 19 per well | 12 per well and 16 per well | 8 per well and 11 per well | 6 per well and 9 per well | pIC50 [1, 9]: 4.92; Schizonts per well ([2]; Isolate 3, 20 uM (Fig. 5c-d)): 4 per well and 3 per well; pIC50 [2, 9]: 5.22 to 5.31; schizonts (fold change to DMSO) mean diff ([2]; isolate 1, 20 µM): 0.983; schizonts (fold change to DMSO) mean diff ([2]; isolate 2, 20 µM): 0.9434; schizonts (fold change to DMSO) mean diff ([2]; isolate 3, 20 µM): 0.7614; pIC50 [3]: 4.56; Nucleus counts per well ([4]; 1 uM): 16280 per well and 14580 per well; Nucleus counts per well ([4]; 2.5uM): 10950 per well and 12190 per well; Nucleus counts per well ([4]; 5 uM): 11170 per well and 12350 per well; Nucleus counts per well ([4]; 10uM): 12430 per well and 11110 per well; Nucleus counts per well ([4]; 20uM, P. vivax-infected wells): 10860 per well and 12840 per well; pIC50 [5, 13]: 6.91; SI [5]: 220.6
Fc1ccc(-c2ccnc(N3CCNCC3)c2)c(OCCc2cccnc2)c1 [Compound 12l] | 5 and 8 and 2 | 6 and 4 and 1 | 5 and 7 and 0 | 1 and 14 and 0 | 0 per well (2×) and 5 per well | 0 per well (2×) and 5 per well | 0 | 0 (2×) and 5 | 1.000 | 0.828 | 0 per well (2×) and 1 per well | 4 per well and 7 per well and 1 per well | 2 per well and 7 per well | 11 per well and 13 per well and 18 per well | 11 per well and 12 per well | 6 per well and 8 per well and 9 per well | 12 per well and 19 per well | 8 per well and 16 per well | 7 per well and 13 per well | 5 per well and 9 per well | pIC50 [1, 9]: 5.68; pIC50 [2, 9]: 5.33 to 5.54; schizonts (fold change to DMSO) mean diff ([2]; isolate 1, 20 µM): 0.983; schizonts (fold change to DMSO) mean diff ([2]; isolate 2, 20 µM): 0.7736; schizonts (fold change to DMSO) mean diff ([2]; isolate 3, 20 µM): 0.6932; pIC50 [3]: 5.77; Nucleus counts per well ([4]; 1 uM): 15910 per well and 14650 per well; Nucleus counts per well ([4]; 2.5uM): 13010 per well and 13310 per well; Nucleus counts per well ([4]; 5 uM): 13030 per well and 13070 per well; Nucleus counts per well ([4]; 10uM): 13130 per well and 13070 per well; Nucleus counts per well ([4]; 20uM, P. vivax-infected wells): 11440 per well and 13460 per well; pIC50 [5, 13]: 7.63; SI [5]: 73
Cc1n[nH]c(C)c1CCOc1cc(F)ccc1-c1ccnc(N2CCNCC2)c1 [Compound 12q] | 11 and 8 and 10 | 8 and 5 and 7 | 5 and 6 and 3 | 5 and 0 and 3 | 0 per well (2×) and 1 per well | 1 per well (2×) and 0 per well | 0 | 1 (2×) and 0 | 0.939 | 0.931 | 0 per well (2×) and 1 per well | 3 per well and 4 per well and 1 per well | 3 per well and 7 per well | 11 per well and 15 per well and 12 per well | 7 per well and 9 per well and 13 per well | 9 per well and 11 per well and 12 per well | 12 per well and 13 per well | 6 per well and 11 per well | 7 per well and 6 per well | 5 per well and 8 per well | pIC50 [1]: 5.36; Schizonts per well ([2]; Isolate 2, 10 uM): 7 per well and 5 per well and 6 per well; schizonts (fold change to DMSO) mean diff ([2]; isolate 1, 20 µM): 0.983; schizonts (fold change to DMSO) mean diff ([2]; isolate 2, 20 µM): 0.8491; schizonts (fold change to DMSO) mean diff ([2]; isolate 3, 20 µM): 0.6591; pIC50 [2]: 5.46 to 5.66; pIC50 ([3]; read-out: HsNMT IC50, mean of two or more determinations): 5.79; Nucleus counts per well ([4]; 1 uM): 14830 per well and 14410 per well; Nucleus counts per well ([4]; 2.5uM): 12630 per well and 14350 per well; Nucleus counts per well ([4]; 5 uM): 13780 per well and 14410 per well; Nucleus counts per well ([4]; 10uM): 15080 per well and 12510 per well; Nucleus counts per well ([4]; 20uM, P. vivax-infected wells): 12010 per well and 14890 per well; SI [5]: 22; pIC50 ([5]; read-out: PvNMT IC50, mean of two or more determinations): 7.14
